Measurements from patent US20260053811A1, “METHODS OF TREATING HYPERTENSION IN OBESE SUBJECTS” (Mineralys Therapeutics, Inc., priority 2022, published 2026).
Marks after values point to notes of the source that are not given here.

System: hypertensive subjects
Experiment: Seated automated office blood pressure (AOBP) in randomized, placebo-controlled, dose-ranging study
Assay type: in vivo, human
Parameters: Difference from placebo in change in blood pressure: unit not given here
Protocol: A randomized, double-blinded, placebo-controlled, dose-ranging, multicenter study was conducted to evaluate the effect of orally administered Compound A HBr on blood pressure for the treatment of hypertension in male and female subjects ≥18 years of age.
The study consists of two parts. For enrollment into Part 1 of the study, a subject's value of plasma renin activity (PRA) must be ≤1 ng/mL/h based on morning measurement. If the value of PRA >1 ng/mL/h based on morning measurement, then subjects may be eligible to enter Part 2 of the study.
For Part 1, 163 enrolled subjects ≥18 years of age were randomized into 6 equal treatment groups (1:1:1:1:1:1) to 12.5 mg BID, 25 mg BID, 12.5 mg QD, 50 mg QD, 100 mg QD, or placebo. After a review of interim clinical data, the 2 lowest dose levels (12.5 mg QD and 12.5 mg BID) were stopped for future randomization due to a lack of consistent meaningful reduction of blood pressure, but the patients randomized to that point remained in the study through completion. Thus, after the review of interim clinical data, subjects were randomized into 4 equal treatment groups (1:1:1:1) to 25 mg BID, 50 mg QD, 100 mg QD, or placebo.
For Part 2, 36 enrolled subjects ≥18 years of age were randomized (5:1) to either 100 mg QD Compound A HBr or placebo such that the Compound A HBr treatment group consisted of approximately 30 subjects and the placebo treatment group will consist of approximately 6 subjects.
Subjects orally administered the assigned study drug (Compound A HBr or placebo) according to the assigned dosing regimen for 8 weeks beginning on Study Day 1. All subjects in Part 1 (regardless of dosing group) received BID dosing to preserve the integrity of the blind; active drug is administered as the morning dose for all QD dose groups. Subjects returned to the research facility or were seen by the clinical investigator or approved home health care professional at the end of Study Weeks 1, 2, 3, 4, 5, 6, 7, and 8 (±2 days) for protocol-defined efficacy and safety assessments and procedures, assessment of adverse events (AEs), and confirmation of compliance with study drug usage. Subjects also completed a telephone visit and blood pressure (BP) check at home approximately 3 days post last dose of study drug. Subjects attended up to 14 full clinic visits, including a pre-Screening visit, a Screening/start of Placebo Run-in visit, a second visit during Placebo Run-in, a clinic visit to initiate the ABPM procedure, a Randomization visit, 8 weekly visits during double-blind treatment, and an end-of-study visit scheduled 4 weeks after the last study treatment for final efficacy and safety assessments.
An automated oscillometric sphygmomanometer device was used to measure the subjects' systolic and diastolic blood pressure in office after approximately 5 minutes of rest in the seated position.
The primary endpoint is the change in office-measured (mean of last 2 of 5 unattended measurements using an automated oscillometric sphygmomanometer device after approximately 5 minutes of rest in the seated position) systolic blood pressure (SBP) from baseline to the end of Study Week 8.
Secondary endpoints of this study were: • (a) Change in 24-hour ambulatory blood pressure monitoring (ABPM) parameters (systolic and diastolic) from baseline to the end of Study Week 7. • (b) Change in office-measured SBP from baseline to the end of Study Weeks 1, 2, 3, 4, 5, 6, and 7. • (c) Change in office-measured diastolic blood pressure (DBP) from baseline to the end of Study Weeks 1, 2, 3, 4, 5, 6, 7, and 8. • (d) Proportion of subjects who achieve office-measured BP of ≤130/80 mm Hg by the end of Study Week 8.

[1] = 100 mg QD Part 1, Week 8, Parts 1 & 2 model, FAS

SMILES: CC(=O)N[C@H]1CC[C@H](NC(=O)CN2CCN(c3nncc(-c4ccc(C)cc4)n3)CC2)CC1 [Compound A HBr]
- Placebo-adjusted reduction in AOBP SBP, concomitant use of thiazide diuretics (50 mg QD, Part 1, Week 8): −12.9 mmHg
- Difference from placebo in change in blood pressure (50 mg QD, Thiazide No): −4.3
- Difference from placebo in change in blood pressure (50 mg QD, Thiazide Yes): −13.2*
- Seated AOBP DBP change from baseline (CFB), Mean (SD) (50 mg QD, Week 1, Part 1, FAS): −4.34 (8.86) mmHg
- Seated AOBP DBP, Mean (SD) (50 mg QD, Week 1, Part 1, FAS): 80.54 (7.58) mmHg
- Seated AOBP SBP change from baseline (CFB), Mean (SD) (50 mg QD, Week 1, Part 1, FAS): −8.32 (14.27) mmHg
- Seated AOBP SBP, Mean (SD) (50 mg QD, Week 1, Part 1, FAS): 133.50 (12.23) mmHg
- Seated AOBP DBP change from baseline (CFB), Mean (SD) (50 mg QD, Week 2, Part 1, FAS): −5.91 (7.38) mmHg
- Seated AOBP DBP, Mean (SD) (50 mg QD, Week 2, Part 1, FAS): 78.96 (8.27) mmHg
- Seated AOBP SBP change from baseline (CFB), Mean (SD) (50 mg QD, Week 2, Part 1, FAS): −9.54 (13.78) mmHg
- Seated AOBP SBP, Mean (SD) (50 mg QD, Week 2, Part 1, FAS): 132.29 (10.55) mmHg
- Seated AOBP DBP change from baseline (CFB), Mean (SD) (50 mg QD, Week 3, Part 1, FAS): −3.84 (8.83) mmHg
- Seated AOBP DBP, Mean (SD) (50 mg QD, Week 3, Part 1, FAS): 81.04 (9.15) mmHg
- Seated AOBP SBP change from baseline (CFB), Mean (SD) (50 mg QD, Week 3, Part 1, FAS): −9.50 (16.67) mmHg
- Seated AOBP SBP, Mean (SD) (50 mg QD, Week 3, Part 1, FAS): 132.32 (13.45) mmHg
- LSM Δ with Placebo, seated AOBP DBP (MMRM) (50 mg QD, Week 4, Part 1, FAS): −3.95 mmHg
- Modelled (MMRM) LSM (SEM) change from baseline, seated AOBP DBP (50 mg QD, Week 4, Part 1, FAS): −4.49 (1.41) mmHg
- Seated AOBP DBP change from baseline (CFB), Mean (SD) (50 mg QD, Week 4, Part 1, FAS): −5.30 (8.33) mmHg
- Seated AOBP DBP, Mean (SD) (50 mg QD, Week 4, Part 1, FAS): 79.57 (8.36) mmHg
- Seated AOBP SBP change from baseline (CFB), Mean (SD) (50 mg QD, Week 4, Part 1, FAS): −9.07 (15.77) mmHg
- Seated AOBP SBP, Mean (SD) (50 mg QD, Week 4, Part 1, FAS): 132.75 (11.85) mmHg
- Seated AOBP DBP change from baseline (CFB), Mean (SD) (50 mg QD, Week 5, Part 1, FAS): −6.10 (7.22) mmHg
- Seated AOBP DBP, Mean (SD) (50 mg QD, Week 5, Part 1, FAS): 78.58 (7.53) mmHg
- Seated AOBP SBP change from baseline (CFB), Mean (SD) (50 mg QD, Week 5, Part 1, FAS): −8.38 (15.19) mmHg
- Seated AOBP SBP, Mean (SD) (50 mg QD, Week 5, Part 1, FAS): 134.27 (15.39) mmHg
- Seated AOBP DBP change from baseline (CFB), Mean (SD) (50 mg QD, Week 6, Part 1, FAS): −6.26 (8.48) mmHg
- Seated AOBP DBP, Mean (SD) (50 mg QD, Week 6, Part 1, FAS): 78.63 (8.17) mmHg
- Seated AOBP SBP change from baseline (CFB), Mean (SD) (50 mg QD, Week 6, Part 1, FAS): −10.72 (14.86) mmHg
- Seated AOBP SBP, Mean (SD) (50 mg QD, Week 6, Part 1, FAS): 131.11 (12.49) mmHg
- Seated AOBP DBP change from baseline (CFB), Mean (SD) (50 mg QD, Week 7, Part 1, FAS): −3.75 (11.03) mmHg
- Seated AOBP DBP, Mean (SD) (50 mg QD, Week 7, Part 1, FAS): 80.88 (11.41) mmHg
- Seated AOBP SBP change from baseline (CFB), Mean (SD) (50 mg QD, Week 7, Part 1, FAS): −7.69 (18.91) mmHg
- Seated AOBP SBP, Mean (SD) (50 mg QD, Week 7, Part 1, FAS): 133.19 (16.39) mmHg
- LSM Δ from Placebo, change from baseline in seated AOBP SBP (MMRM) (50 mg QD, Week 8, Part 1, FAS): −9.58 mmHg
- LSM Δ with Placebo, seated AOBP DBP (MMRM) (50 mg QD, Week 8, Part 1, FAS): −5.46 mmHg
- Modelled (MMRM) LSM (SEM) change from baseline, seated AOBP DBP (50 mg QD, Week 8, Part 1, FAS): −7.09 (1.70) mmHg
- Modelled (MMRM) LSM (SEM) change from baseline, seated AOBP SBP (50 mg QD, Week 8, Part 1, FAS): −13.69 (2.67) mmHg
- Seated AOBP DBP change from baseline (CFB), Mean (SD) (50 mg QD, Week 8, Part 1, FAS): −8.05 (9.13) mmHg
- Seated AOBP DBP, Mean (SD) (50 mg QD, Week 8, Part 1, FAS): 76.82 (9.82) mmHg
- Seated AOBP SBP change from baseline (CFB), Mean (SD) (50 mg QD, Week 8, Part 1, FAS): −13.18 (17.17) mmHg
- Seated AOBP SBP, Mean (SD) (50 mg QD, Week 8, Part 1, FAS): 128.64 (13.69) mmHg
- Subjects with seated AOBP SBP/DBP ≤130/80 mmHg: No (50 mg QD, Week 8, Part 1, FAS): 16 (57.1) n (%)
- Subjects with seated AOBP SBP/DBP ≤130/80 mmHg: Yes (50 mg QD, Week 8, Part 1, FAS): 12 (42.9) n (%)
- Modelled (MMRM) LSM (SEM) change from baseline, seated AOBP DBP (100 mg QD Part 1, Week 4, Parts 1 & 2 model, FAS): −5.88 (1.49) mmHg
- Modelled (MMRM) LSM (SEM) change from baseline, seated AOBP DBP [1]: −4.57 (1.53) mmHg
- Modelled (MMRM) LSM (SEM) change from baseline, seated AOBP SBP [1]: −12.08 (2.68) mmHg
